How the values were obtained:
Experiment in all cases: Minimum inhibitory concentration, microtitre plate doubling dilutions
Format in all cases: cell-based
Escherichia coli = details: for MIC versus organism E.c: biocide alone, visual growth after 24 hours at 37° C.
Description: (§1) Bacteria were grown to stationary phase (18 h) in nutrient broth (approximately 10^9 organisms per ml). A 0.1% (v/v) inoculum was used to seed fresh medium and 100 μl of this was added to each well of a microtitre plate, except for the first well which contained 200 μl. Using doubling dilutions, the concentration of each antimicrobial was varied in each well along the ordinate axis. The presence or absence of growth was determined by visual inspection after 24 hours incubation at 37° C.

Pseudomonas aeruginosa = details: for MIC versus organism Ps.a: biocide alone, visual growth after 24 hours at 37° C.
Description: as §1

Staphylococcus aureus = details: for MIC versus organism S.a: biocide alone, visual growth after 24 hours at 37° C.
Description: as §1

## Alkyldimethylbenzylammonium chloride [Barquat 4214]
Escherichia coli
  MIC versus organism E.c: 8 ppm
Pseudomonas aeruginosa
  MIC versus organism Ps.a: 32 ppm
Staphylococcus aureus
  MIC versus organism S.a: 2 ppm

## Benzyl C12-16 alkyl dimethyl chlorides [Barquat DM-80]
Escherichia coli
  MIC versus organism E.c: 12 ppm
Pseudomonas aeruginosa
  MIC versus organism Ps.a: 32 ppm
Staphylococcus aureus
  MIC versus organism S.a: 2 ppm

## Didecyl dimethyl ammonium carbonate/bicarbonate [Carboquat HE]
Escherichia coli
  MIC versus organism E.c: 4 ppm
Pseudomonas aeruginosa
  MIC versus organism Ps.a: 8 ppm
Staphylococcus aureus
  MIC versus organism S.a: 1 ppm

## N,N-Didecyl-N-methyl-poly(oxyethyl)ammonium propionate [Bardap 26]
Escherichia coli
  MIC versus organism E.c: 4 ppm
Pseudomonas aeruginosa
  MIC versus organism Ps.a: 16 ppm
Staphylococcus aureus
  MIC versus organism S.a: 1 ppm

## [Na+].[O-][n+]1ccccc1[S-] [Sodium Omadine, Na pyrithione]
Escherichia coli
  MIC versus organism E.c: 500 ppm
Pseudomonas aeruginosa
  MIC versus organism Ps.a: 16 ppm
Staphylococcus aureus
  MIC versus organism S.a: 1 ppm

## CCCCCCCCCC[N+](C)(C)CCCCCCCCCC.[Cl-] [Bardac 22.70, Didecyldimethyl ammonium chloride]
Escherichia coli; Escherichia coli, 24 h, read-out: MIC versus organism E.c
  MIC: 4 µg/mL
Pseudomonas aeruginosa; Pseudomonas aeruginosa, 24 h, read-out: MIC versus organism Ps.a
  MIC: 8 µg/mL
Staphylococcus aureus; Staphylococcus aureus, 24 h, read-out: MIC versus organism S.a
  MIC: 1 µg/mL

## CCCCCCCCCCCCN(CCCN)CCCN [Lonzabac 12.30, N-3-aminopropyl-N-dodecylpropane-1-3-diamine]
Escherichia coli
  MIC versus organism E.c: 16 ppm
Pseudomonas aeruginosa
  MIC versus organism Ps.a: 32 ppm
Staphylococcus aureus
  MIC versus organism S.a: 8 ppm
